# Experimental data from ChEMBL document CHEMBL2016457, “Discovery of potent and orally bioavailable 17β-hydroxysteroid dehydrogenase type 3 inhibitors” (Bioorg Med Chem, 2012).
# The source made the active and inactive calls.
# Columns and labels:
# [1] = target: T1, Glucocorticoid receptor (Homo sapiens) (UniProt P04150); test: Agonist activity at human Glucocorticoid receptor expressed in human HeLa cells assessed as DHT-induced response after 40 hrs by luciferase/beta-galactosidase-based reporter gene assay; assay type: functional, cell-based
# T1 sequence (whole entry): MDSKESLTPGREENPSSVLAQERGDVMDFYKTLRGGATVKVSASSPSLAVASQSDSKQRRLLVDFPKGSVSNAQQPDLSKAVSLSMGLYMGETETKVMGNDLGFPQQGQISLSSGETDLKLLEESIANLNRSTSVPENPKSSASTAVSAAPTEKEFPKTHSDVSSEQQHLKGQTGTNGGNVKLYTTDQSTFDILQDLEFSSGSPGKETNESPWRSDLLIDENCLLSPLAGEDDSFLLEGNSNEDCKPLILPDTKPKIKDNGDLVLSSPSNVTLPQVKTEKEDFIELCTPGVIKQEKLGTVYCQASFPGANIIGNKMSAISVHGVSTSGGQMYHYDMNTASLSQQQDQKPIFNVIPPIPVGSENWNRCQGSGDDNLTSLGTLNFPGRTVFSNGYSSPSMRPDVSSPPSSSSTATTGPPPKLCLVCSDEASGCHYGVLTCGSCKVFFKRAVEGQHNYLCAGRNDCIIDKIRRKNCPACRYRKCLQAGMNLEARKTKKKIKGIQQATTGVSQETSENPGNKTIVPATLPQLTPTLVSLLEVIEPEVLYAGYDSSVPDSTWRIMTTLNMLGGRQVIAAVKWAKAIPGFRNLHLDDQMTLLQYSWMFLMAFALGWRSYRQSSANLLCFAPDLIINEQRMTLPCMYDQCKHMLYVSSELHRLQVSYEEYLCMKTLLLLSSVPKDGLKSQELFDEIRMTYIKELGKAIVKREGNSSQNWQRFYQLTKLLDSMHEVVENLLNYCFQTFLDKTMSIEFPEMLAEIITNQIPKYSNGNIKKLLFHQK
# [2] = target: T1, Glucocorticoid receptor (Homo sapiens); test: Antagonist activity at human GR receptor expressed in human HeLa cells assessed as inhibition of DHT-induced response after 40 hrs by luciferase/beta-galactosidase-based reporter gene assay; assay type: functional, cell-based
# [3] = target: T2, 17-beta-hydroxysteroid dehydrogenase type 3 (Homo sapiens, UniProt P37058); conditions: hela
# T2 sequence (P37058 whole entry): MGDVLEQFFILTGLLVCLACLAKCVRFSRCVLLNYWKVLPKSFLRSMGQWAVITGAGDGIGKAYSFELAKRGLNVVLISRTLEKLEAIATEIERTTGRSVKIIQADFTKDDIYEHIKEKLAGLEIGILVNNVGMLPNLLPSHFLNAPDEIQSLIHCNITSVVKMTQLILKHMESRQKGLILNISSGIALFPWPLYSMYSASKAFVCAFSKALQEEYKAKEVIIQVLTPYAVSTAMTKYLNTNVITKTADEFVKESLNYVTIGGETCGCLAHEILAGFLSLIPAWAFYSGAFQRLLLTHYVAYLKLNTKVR
# Description: (§1) Inhibition of human recombinant 17-beta-HSD3 expressed in human HeLa cells using androstenedione as substrate preincubated for 30 mins prior substrate addition measured after 120 mins by spectrophotometry
# [4] = target: T3, Estrogen receptor (Homo sapiens) (UniProt P03372); test: Agonist activity at human Estrogen receptor ERalpha expressed in human HeLa cells assessed as DHT-induced response after 40 hrs by luciferase/beta-galactosidase-based reporter gene assay; assay type: functional, cell-based
# T3 sequence (whole entry): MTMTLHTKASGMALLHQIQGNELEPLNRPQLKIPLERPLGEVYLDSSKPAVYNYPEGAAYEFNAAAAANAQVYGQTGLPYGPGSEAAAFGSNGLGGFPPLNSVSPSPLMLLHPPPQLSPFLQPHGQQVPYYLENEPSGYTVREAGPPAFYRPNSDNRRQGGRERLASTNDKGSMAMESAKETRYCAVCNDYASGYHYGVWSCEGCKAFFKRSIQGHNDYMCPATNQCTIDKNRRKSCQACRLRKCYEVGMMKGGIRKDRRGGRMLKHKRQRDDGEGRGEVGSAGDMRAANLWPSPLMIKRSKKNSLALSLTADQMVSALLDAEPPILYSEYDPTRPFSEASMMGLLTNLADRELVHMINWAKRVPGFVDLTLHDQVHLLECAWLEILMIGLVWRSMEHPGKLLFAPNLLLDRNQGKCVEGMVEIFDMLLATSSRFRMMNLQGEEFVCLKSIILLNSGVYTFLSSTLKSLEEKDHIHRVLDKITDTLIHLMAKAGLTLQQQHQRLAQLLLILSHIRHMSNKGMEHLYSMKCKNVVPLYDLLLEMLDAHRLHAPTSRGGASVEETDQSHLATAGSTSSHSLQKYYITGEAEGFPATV
# [5] = target: T4, 17-beta-hydroxysteroid dehydrogenase type 2 (Homo sapiens) (UniProt P37059); test: Inhibition of human recombinant 17-beta-HSD2 expressed in human HeLa cells using estradiol as substrate preincubated for 30 mins prior substrate addition measured after 120 mins by spectrophotometry; assay type: cell-based
# T4 sequence (whole entry): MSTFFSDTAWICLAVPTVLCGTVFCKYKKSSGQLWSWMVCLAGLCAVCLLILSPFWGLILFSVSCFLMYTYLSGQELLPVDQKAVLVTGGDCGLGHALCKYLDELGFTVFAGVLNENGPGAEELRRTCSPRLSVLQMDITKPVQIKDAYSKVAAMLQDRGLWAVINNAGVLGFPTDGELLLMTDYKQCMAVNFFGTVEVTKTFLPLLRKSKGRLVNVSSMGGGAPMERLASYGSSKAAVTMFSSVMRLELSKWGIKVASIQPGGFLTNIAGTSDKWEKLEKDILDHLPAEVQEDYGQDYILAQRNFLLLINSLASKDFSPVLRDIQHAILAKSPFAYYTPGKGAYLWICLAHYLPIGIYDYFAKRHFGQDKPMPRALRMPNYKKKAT
# [6] = target: T5, Androgen receptor (Homo sapiens) (UniProt P10275); test: Antagonist activity at human androgen receptor expressed in human HeLa cells assessed as inhibition of DHT-induced response after 40 hrs by luciferase/beta-galactosidase-based reporter gene assay; assay type: functional, cell-based
# T5 sequence (whole entry): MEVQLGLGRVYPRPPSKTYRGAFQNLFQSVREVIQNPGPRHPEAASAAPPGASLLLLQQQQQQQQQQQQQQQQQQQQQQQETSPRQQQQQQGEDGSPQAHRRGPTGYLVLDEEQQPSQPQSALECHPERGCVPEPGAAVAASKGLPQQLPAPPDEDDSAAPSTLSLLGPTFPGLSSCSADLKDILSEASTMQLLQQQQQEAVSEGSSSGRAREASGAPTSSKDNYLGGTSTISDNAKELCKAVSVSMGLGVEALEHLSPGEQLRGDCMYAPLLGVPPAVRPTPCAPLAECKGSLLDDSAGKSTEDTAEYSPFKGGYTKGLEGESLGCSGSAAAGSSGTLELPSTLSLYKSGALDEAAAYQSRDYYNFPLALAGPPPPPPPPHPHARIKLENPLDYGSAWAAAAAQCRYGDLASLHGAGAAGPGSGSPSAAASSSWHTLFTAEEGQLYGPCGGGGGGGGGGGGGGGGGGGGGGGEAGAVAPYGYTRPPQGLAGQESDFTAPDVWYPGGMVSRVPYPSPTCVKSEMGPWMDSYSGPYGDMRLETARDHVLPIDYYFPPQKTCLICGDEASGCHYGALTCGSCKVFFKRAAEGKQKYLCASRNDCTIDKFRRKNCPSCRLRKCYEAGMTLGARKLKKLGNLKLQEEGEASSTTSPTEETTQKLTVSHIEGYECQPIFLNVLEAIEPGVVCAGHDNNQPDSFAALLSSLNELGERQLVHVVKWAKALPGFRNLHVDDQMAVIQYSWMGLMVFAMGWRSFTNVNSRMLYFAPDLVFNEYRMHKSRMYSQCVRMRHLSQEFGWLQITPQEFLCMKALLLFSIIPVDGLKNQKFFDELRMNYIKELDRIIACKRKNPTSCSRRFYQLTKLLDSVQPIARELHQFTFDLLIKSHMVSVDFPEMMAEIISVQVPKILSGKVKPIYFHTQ
# [7] = target: T5, Androgen receptor (Homo sapiens); test: Agonist activity at human androgen receptor expressed in human HeLa cells assessed as DHT-induced response after 40 hrs by luciferase/beta-galactosidase-based reporter gene assay; assay type: functional, cell-based
# [8] = target: T3, Estrogen receptor (Homo sapiens); test: Antagonist activity at human ERalpha receptor expressed in human HeLa cells assessed as inhibition of DHT-induced response after 40 hrs by luciferase/beta-galactosidase-based reporter gene assay; assay type: functional, cell-based
# [9] = target: T6, 17-beta-hydroxysteroid dehydrogenase type 1 (Homo sapiens) (UniProt P14061); test: Inhibition of human recombinant 17-beta-HSD1 expressed in human HeLa cells using estrone as substrate preincubated for 30 mins prior substrate addition measured after 120 mins by spectrophotometry; assay type: cell-based
# T6 sequence (whole entry): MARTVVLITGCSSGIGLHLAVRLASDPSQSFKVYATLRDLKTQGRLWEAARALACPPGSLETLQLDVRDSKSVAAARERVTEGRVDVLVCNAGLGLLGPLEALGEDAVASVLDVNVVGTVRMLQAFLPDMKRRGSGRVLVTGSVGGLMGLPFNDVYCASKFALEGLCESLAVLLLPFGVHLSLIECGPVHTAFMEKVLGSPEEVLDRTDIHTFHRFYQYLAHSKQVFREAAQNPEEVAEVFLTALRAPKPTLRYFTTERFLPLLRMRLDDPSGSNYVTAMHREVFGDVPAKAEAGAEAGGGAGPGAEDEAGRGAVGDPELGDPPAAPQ
# Rattus norvegicus = test: Inhibition of LH-RH agonist leuprorelin-induced testosterone steroidogenesis in Sprague-Dawley rat at 20 mg/kg, po administered 1 hr prior leuprorelin-induction measured up to 240 mins by GC/MS analysis; assay type: functional, organism-based; design: dose 20 mg/kg
# [10] = target: T2, 17-beta-hydroxysteroid dehydrogenase type 3
# Description: as §1
SMILES,Activity [1],Activity [2],IC50 [3],Activity [4],inhibition [5],Activity [6],Activity [7],Activity [8],inhibition [9],inhibition (Rattus norvegicus),IC50 [10] [nM]
COc1ccc(N2C(=O)O/C(=C\c3ccc(O)c(C(=O)O)c3)C2=O)cc1,inactive,inactive,Not Active,inactive,inactive,inactive,inactive,inactive,inactive,–,–
O=C1NC(=S)S/C1=C\c1ccc(O)c(Br)c1,inactive,inactive,Not Active,inactive,inactive,inactive,inactive,inactive,inactive,–,–
COc1ccc(N2C(=O)/C(=C(/c3ccc(O)c(Br)c3)C(F)(F)F)SC2=S)cc1,inactive,inactive,Not Active,inactive,inactive,inactive,inactive,inactive,inactive,–,–
COc1ccc(N2C(=O)O/C(=C\c3ccc(O)c(C#N)c3)C2=O)cc1,inactive,inactive,Not Active,inactive,inactive,inactive,inactive,inactive,inactive,–,–
CN1CCC(N2C(=O)/C(=C/c3ccc(O)c(Br)c3)SC2=S)CC1,inactive,inactive,Not Active,inactive,inactive,inactive,inactive,inactive,inactive,–,–
NS(=O)(=O)c1ccc(N2C(=O)O/C(=C\c3ccc(O)c(Br)c3)C2=O)cc1,inactive,inactive,Not Active,inactive,inactive,inactive,inactive,inactive,inactive,–,–
COc1ccc(N2C(=O)O/C(=C\c3ccc(O)c(CN(C)C)c3)C2=O)cc1,inactive,inactive,Not Active,inactive,inactive,inactive,inactive,inactive,inactive,–,–
COc1ccc(N2C(=O)O/C(=C\c3cc(Cl)c(O)c(Cl)c3)C2=O)cc1,inactive,inactive,Not Active,inactive,inactive,inactive,inactive,inactive,inactive,–,–
CC(=O)O[C@H]1CC[C@@]2(C)C(=CC[C@@H]3[C@@H]2CC[C@]2(C)C(c4cccnc4)=CC[C@@H]32)C1,–,–,–,–,–,–,–,–,–,Active,–
O=C(O)c1ccc(N2C(=O)O/C(=C\c3ccc(O)c(Br)c3)C2=O)cc1,inactive,inactive,Not Active,inactive,inactive,inactive,inactive,inactive,inactive,–,–
COc1ccc(N2C(=O)/C(=C/c3ccc(O)cc3)OC2=S)cc1,inactive,inactive,–,inactive,inactive,inactive,inactive,inactive,inactive,–,121
